Laboratory results published in patent publication US10765114B2, “4-amino-6-(pyridyl and 2-substitutedphenyl)-picolinates and 6-amino-2-(pyridyl and 2-substitutedphenyl)-pyrimidine-4-carboxylates and their use as herbicides” (Dow AgroSciences LLC, priority 2013, dated 2020).
Like-named read-outs stand apart in the source and are kept apart here.

Legend:
[1] = system: Key Grass and Sedge Weeds as well as Grass Crops; experiment: Post-Emergent Test II (Table 6); format: in vivo; conditions: post-emergence, 336 h, 14 days after application; for pest or weed control at 70 g/ha: 70 g ai/ha; for pest or weed control at 140 g/ha: 140 g ai/ha
Summary of the method: (§1)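 Visual injury ratings (0 = no injury, 100 = complete kill) were taken 14 days after treatment relative to untreated plants. Seedlings at the first or second true leaf stage received an overhead spray at 187 L/ha, and solvent-blank sprayed plants served as controls.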

[2] = system: Key Broadleaf Weed and Crop Species; experiment: Post-Emergent Test II (Table 5); format: in vivo; conditions: post-emergence, 336 h; for pest or weed control at 70 g/ha: application rate 70 (kg ai/ha; footnote: g ai/ha); for pest or weed control at 140 g/ha: application rate 140 (kg ai/ha; footnote: g ai/ha)
Summary of the method: as §1

[3] = CYPSS, read-out: Visual Growth Reduction (%) 14 Days After Application CYPSS
[4] = DIGSA: crabgrass (Digitaria sanguinalis), read-out: Visual Growth Reduction (%) 14 Days After Application DIGSA
[5] = ECHSS, read-out: Visual Growth Reduction (%) 14 Days After Application ECHSS
[6] = ORYSS (crop), read-out: Visual Growth Reduction (%) 14 Days After Application ORYSS
[7] = SETFA: giant foxtail (Setaria faberi), read-out: Visual Growth Reduction (%) 14 Days After Application SETFA
[8] = SORVU: grain sorghum (Sorghum vulgare), read-out: Visual Growth Reduction (%) 14 Days After Application SORVU
[9] = TRZSS (crop), read-out: Visual Growth Reduction (%) 14 Days After Application TRZSS
[10] = ZEAMX: maize, corn (Zea mays), read-out: Visual Growth Reduction (%) 14 Days After Application ZEAMX
[11] = Abutilon theophrasti, ABUTH: velvetleaf (Abutilon theophrasti), read-out: Visual Growth Reduction (%) 14 Days After Application ABUTH
[12] = Amaranthus retroflexus, AMARE: redroot pigweed (Amaranthus retroflexus), read-out: Visual Growth Reduction (%) 14 Days After Application AMARE
[13] = Brassica napus, BRSSS: oilseed rape, canola (Brassica napus), read-out: Visual Growth Reduction (%) 14 Days After Application BRSSS
[14] = Chenopodium album, CHEAL: lambsquarters (Chenopodium album), read-out: Visual Growth Reduction (%) 14 Days After Application CHEAL
[15] = Euphorbia heterophylla, EPHHL: wild poinsettia (Euphorbia heterophylla), read-out: Visual Growth Reduction (%) 14 Days After Application EPHHL
[16] = Helianthus annuus, HELAN: sunflower (Helianthus annuus), read-out: Visual Growth Reduction (%) 14 Days After Application HELAN
[17] = Viola tricolor, VIOTR: wild pansy (Viola tricolor), read-out: Visual Growth Reduction (%) 14 Days After Application VIOTR

| SMILES | pest or weed control at 70 g/ha [1, 3] [%] | pest or weed control at 140 g/ha [1, 3] [%] | pest or weed control at 70 g/ha [1, 4] [%] | pest or weed control at 140 g/ha [1, 4] [%] | pest or weed control at 70 g/ha [1, 5] [%] | pest or weed control at 70 g/ha [1, 6] [%] | pest or weed control at 140 g/ha [1, 6] [%] | pest or weed control at 70 g/ha [1, 7] [%] | pest or weed control at 140 g/ha [1, 7] [%] | pest or weed control at 70 g/ha [1, 8] [%] | pest or weed control at 140 g/ha [1, 8] [%] | pest or weed control at 70 g/ha [1, 9] [%] | pest or weed control at 140 g/ha [1, 9] [%] | pest or weed control at 70 g/ha [1, 10] [%] | pest or weed control at 140 g/ha [1, 10] [%] | pest or weed control at 70 g/ha [2, 11] [%] | pest or weed control at 140 g/ha [2, 11] [%] | pest or weed control at 70 g/ha [2, 12] [%] | pest or weed control at 140 g/ha [2, 12] [%] | pest or weed control at 70 g/ha [2, 13] [%] | other results |
| --- | --- | --- | --- | --- | --- | --- | --- | --- | --- | --- | --- | --- | --- | --- | --- | --- | --- | --- | --- | --- | --- |
| COC(=O)c1nc(-c2ccc(C(F)(F)F)nc2)c(Cl)c(N)c1Cl [Compound 83] | 30 to 44 | 45 to 59 | 60 to 74 | 75 to 84 | 60 to 74 | 0 to 29 | 0 to 29 | 75 to 84 | 75 to 84 | 75 to 84 | 75 to 84 | 45 to 59 | 60 to 74 | 75 to 84 | 75 to 84 | 60 to 74 | 60 to 74 | 0 to 29 | 0 to 29 | 45 to 59 | pest or weed control at 140 g/ha [1, 5]: 75 to 84%; pest or weed control at 140 g/ha [2, 13]: 45 to 59%; pest or weed control at 70 g/ha [2, 14]: 60 to 74%; pest or weed control at 140 g/ha [2, 14]: 75 to 84%; pest or weed control at 70 g/ha [2, 15]: 0 to 29%; pest or weed control at 140 g/ha [2, 15]: 30 to 44%; pest or weed control at 70 g/ha [2, 16]: 85 to 94%; pest or weed control at 140 g/ha [2, 16]: 85 to 94%; pest or weed control at 70 g/ha [2, 17]: 0 to 29%; pest or weed control at 140 g/ha [2, 17]: 0 to 29%; melting point: 148 to 150 °C |
| Cc1ccc(-c2nc(C(=O)O)c(Cl)c(N)c2F)cn1 [Compound 85] | 0 to 29 | 0 to 29 | 0 to 29 | 0 to 29 | 45 to 59 | 0 to 29 | 0 to 29 | 0 to 29 | 0 to 29 | 0 to 29 | 0 to 29 | 0 to 29 | 0 to 29 | 0 to 29 | 0 to 29 | 0 to 29 | 0 to 29 | 95 to 100 | 95 to 100 | 60 to 74 | pest or weed control at 140 g/ha [2, 13]: 75 to 84%; pest or weed control at 70 g/ha [2, 14]: 0 to 29%; pest or weed control at 140 g/ha [2, 14]: 45 to 59%; pest or weed control at 70 g/ha [2, 15]: 0 to 29%; pest or weed control at 140 g/ha [2, 15]: 0 to 29%; pest or weed control at 70 g/ha [2, 16]: 30 to 44%; pest or weed control at 140 g/ha [2, 16]: 45 to 59%; pest or weed control at 70 g/ha [2, 17]: 0 to 29%; pest or weed control at 140 g/ha [2, 17]: 0 to 29%; melting point: 186 to 187 °C |
| CCc1c(-c2cc(N)c(Cl)c(C(=O)O)n2)ccc(Cl)c1F [Compound 86] | 0 to 29 | 0 to 29 | 0 to 29 | 0 to 29 | 0 to 29 | 0 to 29 | 0 to 29 | 0 to 29 | 0 to 29 | 0 to 29 | 0 to 29 | 0 to 29 | 0 to 29 | 0 to 29 | 0 to 29 | 45 to 59 | 0 to 29 | 85 to 94 | 85 to 94 | 75 to 84 | pest or weed control at 140 g/ha [1, 5]: 0 to 29%; pest or weed control at 140 g/ha [2, 13]: 85 to 94%; pest or weed control at 70 g/ha [2, 14]: 85 to 94%; pest or weed control at 140 g/ha [2, 14]: 85 to 94%; pest or weed control at 70 g/ha [2, 15]: 0 to 29%; pest or weed control at 140 g/ha [2, 15]: 0 to 29%; pest or weed control at 70 g/ha [2, 16]: 75 to 84%; pest or weed control at 140 g/ha [2, 16]: 75 to 84%; pest or weed control at 70 g/ha [2, 17]: 0 to 29%; pest or weed control at 140 g/ha [2, 17]: 0 to 29%; melting point: 144 to 146 °C |
| Cc1c(-c2cc(N)c(Cl)c(C(=O)O)n2)ccc(F)c1F [Compound 87] | 0 to 29 | 0 to 29 | 0 to 29 | 0 to 29 | 0 to 29 | 0 to 29 | 0 to 29 | 0 to 29 | 0 to 29 | 0 to 29 | 0 to 29 | 0 to 29 | 0 to 29 | 0 to 29 | 0 to 29 | 95 to 100 | 95 to 100 | 95 to 100 | 95 to 100 | 85 to 94 | pest or weed control at 140 g/ha [1, 5]: 0 to 29%; pest or weed control at 140 g/ha [2, 13]: 85 to 94%; pest or weed control at 70 g/ha [2, 14]: 95 to 100%; pest or weed control at 140 g/ha [2, 14]: 95 to 100%; pest or weed control at 70 g/ha [2, 15]: 0 to 29%; pest or weed control at 140 g/ha [2, 15]: 0 to 29%; pest or weed control at 70 g/ha [2, 16]: 85 to 94%; pest or weed control at 140 g/ha [2, 16]: 95 to 100%; pest or weed control at 70 g/ha [2, 17]: 0 to 29%; pest or weed control at 140 g/ha [2, 17]: 0 to 29%; melting point: 163 to 165 °C |
